Tests used:
[1] = target: T1, HCV polymerase (NS5B) type 1b (Hepatitis C virus genotype 1b, UniProt P26663); assay: Assay of enzyme (HCV polymerase) inhibitory activity, type 1b enzyme; format: biochemical, HCV BK strain (type 1b); conditions: HCV polymerase inhibitory activity (IC50), 1b, type 1b enzyme 0.5 μg/ml, 25° C., 60 min
T1 construct: a region encoding NS5B (J Virol 1991 March, 65(3), 1105-13, 544 amino acids after deletion of 47 amino acids on the C-terminal); 6xHis (C); made in house; host or cells: Escherichia coli
How it was run: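 IC50 derived from [3H]UTP incorporation into TCA-insoluble RNA, compared with and without test compound. Reaction (25 °C, 60 min, Tris pH 7.5, 5 mM MgCl2): E. coli-expressed 1b NS5B Δ47 with His tag at 0.5 μg/ml, 5 μg/ml run-off substrate RNA, ATP/GTP/CTP 50 μM, UTP 2 μM.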

[2] = target: T2, HCV polymerase (NS5B) type 1a (Hepatitis C virus genotype 1a, UniProt P26664); assay: Assay of enzyme (HCV polymerase) inhibitory activity, type 1a enzyme; format: biochemical, HCV type 1a (cloned from the blood of patients); conditions: HCV polymerase inhibitory activity (IC50), 1a, type 1a enzyme 1.5 μg/ml, 25° C., 60 min
T2 construct: made in house; host or cells: Escherichia coli (by the 'similar method' of the 1b enzyme)
How it was run: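 Reactions ran 60 min at 25° C in 20 mM Tris-HCl pH 7.5, 5 mM MgCl2, 50 mM NaCl, holding genotype 1a NS5B (1.5 μg/ml, Δ47 C-terminus, 6His), substrate RNA 5 μg/ml, UTP 2 μM with tritiated UTP and other NTPs 50 μM. IC50 derived from incorporated radiolabel in filter-trapped RNA relative to uninhibited reaction.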

Structure (SMILES)	IC50 [1] [nM]	IC50 [2] [nM]
CC(=O)N1CCN(S(=O)(=O)c2ccc(C(C)C)cc2)[C@@H](C(=O)NCCCN2CCOCC2)C1 [Example 404, (R)-4-acetyl-1-(4-isopropyl-benzenesulfonyl)-piperazine-2-carboxylic acid (3-morpholin-4-yl-propyl)-amide]	> 1000	> 1000
CC(=O)N1CCN(S(=O)(=O)c2ccc(C(C)C)cc2)[C@@H](C(=O)NCCCN2CCCC2)C1 [Example 405, (R)-4-acetyl-1-(4-isopropyl-benzenesulfonyl)-piperazine-2-carboxylic acid (3-pyrrolidin-1-yl-propyl)-amide]	> 1000	> 1000
CCCc1ccc(CNC(=O)[C@H]2CN(c3nc(C)c(C(N)=O)s3)CCN2S(=O)(=O)c2ccc(OC(F)(F)F)cc2)cc1 [Example 406, (R)-4-(5-carbamoyl-4-methyl-thiazol-2-yl)-1-(4-trifluoromethoxy-benzenesulfonyl)-piperazine-2-carboxylic acid 4-propyl-benzylamide]	< 100	< 100
CN(C)c1ccc(CNC(=O)[C@H]2CN(c3cnc(C(=O)O)cn3)CCN2S(=O)(=O)c2ccc(OC(F)(F)F)cc2)cn1 [Example 407, (R)-3-[(6-dimethylamino-pyridin-3-ylmethyl)-carbamoyl]-4-(4-trifluoromethoxy-benzenesulfonyl)-3,4,5,6-tetrahydro-2H-[1,2′]bipyrazinyl-5′-carboxylic acid]	< 100	100 to 1000
CC(C)c1ccc(CNC(=O)[C@H]2CN(c3cnc(C(=O)O)cn3)CCN2S(=O)(=O)c2ccc(OC(F)(F)F)cc2)cn1 [Example 408, (R)-3-[(6-isopropyl-pyridin-3-ylmethyl)-carbamoyl]-4-(4-trifluoromethoxy-benzenesulfonyl)-3,4,5,6-tetrahydro-2H-[1,2′]bipyrazinyl-5′-carboxylic acid]	< 100	< 100
O=C(NCc1ccc(OC(F)(F)F)cc1)[C@H]1CN(C(=O)Cc2ccncc2)CCN1S(=O)(=O)c1ccc(OC(F)(F)F)cc1 [Example 409, (R)-4-(2-pyridin-4-yl-acetyl)-1-(4-trifluoromethoxy-benzenesulfonyl)-piperazine-2-carboxylic acid 4-trifluoromethoxy-benzylamide]	100 to 1000	100 to 1000
CN(C)c1ccc(CNC(=O)[C@H]2CN(C(=O)Cc3ccncc3)CCN2S(=O)(=O)c2ccc(OC(F)(F)F)cc2)cc1 [Example 410, (R)-4-(2-pyridin-4-yl-acetyl)-1-(4-trifluoromethoxy-benzenesulfonyl)-piperazine-2-carboxylic acid 4-dimethylamino-benzylamide]	100 to 1000	< 100
CCCc1ccc(CNC(=O)[C@H]2CN(C(=O)Cc3ccncc3)CCN2S(=O)(=O)c2ccc(OC(F)(F)F)cc2)cc1 [Example 411, (R)-4-(2-pyridin-4-yl-acetyl)-1-(4-trifluoromethoxy-benzenesulfonyl)-piperazine-2-carboxylic acid 4-propyl-benzylamide]	< 100	< 100
O=C(NCc1ccc(C2CC2)cc1)[C@H]1CN(C(=O)Cc2ccncc2)CCN1S(=O)(=O)c1ccc(OC(F)(F)F)cc1 [Example 412, (R)-4-(2-pyridin-4-yl-acetyl)-1-(4-trifluoromethoxy-benzenesulfonyl)-piperazine-2-carboxylic acid 4-cyclopropyl-benzylamide]	100 to 1000	< 100
CCCc1ccc(CNC(=O)[C@H]2CN(c3ccc(C(=O)O)cc3)CCN2S(=O)(=O)c2ccc(OC(F)(F)F)cc2)cc1 [Example 413, 4-[(R)-3-(4-propyl-benzylcarbamoyl)-4-(4-trifluoromethoxy-benzenesulfonyl)-piperazin-1-yl]-benzoic acid]	< 100	100 to 1000
CCCc1ccc(CNC(=O)[C@H]2CN(c3nc(C)c(C(=O)O)s3)CCN2S(=O)(=O)c2ccc(CC)cc2)cc1 [Example 414, 2-[(R)-4-(4-ethyl-benzenesulfonyl)-3-(4-propyl-benzylcarbamoyl)-piperazin-1-yl]-4-methyl-thiazole-5-carboxylic acid]	< 100	< 100
CCCc1ccc(CNC(=O)[C@H]2CN(c3cnc(C(=O)O)cn3)CCN2S(=O)(=O)c2ccc(CC)cc2)cc1 [Example 415, (R)-4-(4-ethyl-benzenesulfonyl)-3-(4-propyl-benzylcarbamoyl)-3,4,5,6-tetrahydro-2H-[1,2′]bipyrazinyl-5′-carboxylic acid]	< 100	< 100
Cc1nc(N2CCN(S(=O)(=O)c3ccc(OC(F)(F)F)cc3)[C@@H](C(=O)NCc3ccc(N4CCCC4)cc3)C2)sc1C(=O)O [Example 416, 4-methyl-2-[(R)-3-(4-pyrrolidin-1-yl-benzylcarbamoyl)-4-(4-trifluoromethoxy-benzenesulfonyl)-piperazin-1-yl]-thiazole-5-carboxylic acid]	< 100	100 to 1000
CCCc1ccc(CNC(=O)[C@H]2CN(c3ccc(C(=O)O)nn3)CCN2S(=O)(=O)c2ccc(OC(F)(F)F)cc2)cc1 [Example 417, 6-[(R)-3-(4-propyl-benzylcarbamoyl)-4-(4-trifluoromethoxy-benzenesulfonyl)-piperazin-1-yl]-pyridazine-3-carboxylic acid]	< 100	< 100
Cc1nc(N2CCN(S(=O)(=O)c3ccc(OC(F)(F)F)cc3)[C@@H](C(=O)NCCc3ccccc3)C2)sc1C(=O)O [Example 418, 4-methyl-2-[(R)-3-phenethylcarbamoyl-4-(4-trifluoromethoxy-benzenesulfonyl)-piperazin-1-yl]-thiazole-5-carboxylic acid]	> 1000	> 1000
CC(=O)N1CCN(S(=O)(=O)c2ccc(Br)cc2F)[C@@H](C(=O)NCc2ccc(C(C)C)cc2)C1 [Example 419, (R)-4-acetyl-1-(4-bromo-2-fluoro-benzenesulfonyl)-piperazine-2-carboxylic acid 4-isopropyl-benzylamide]	100 to 1000	100 to 1000
COC(=O)c1nc(Cl)c(N2CCN(S(=O)(=O)c3ccc(C(F)(F)F)cc3)[C@@H](C(=O)NCc3ccc(C(C)C)cc3)C2)nc1N [Example 420, (R)-6′-amino-3′-chloro-3-(4-isopropyl-benzylcarbamoyl)-4-(4-trifluoromethyl-benzenesulfonyl)-3,4,5,6-tetrahydro-2H-[1,2′]bipyrazinyl-5′-carboxylic acid methyl ester]	> 1000	> 1000
COC(=O)c1nc(Cl)c(N2CCN(S(=O)(=O)c3ccc(C(F)(F)F)cc3)[C@@H](C(=O)NCc3ccc(C(C)C)cc3)C2)nc1Br [Example 421, (R)-6′-bromo-3′-chloro-3-(4-isopropyl-benzylcarbamoyl)-4-(4-trifluoromethyl-benzenesulfonyl)-3,4,5,6-tetrahydro-2H-[1,2′]bipyrazinyl-5′-carboxylic acid methyl ester]	> 1000	> 1000
Cc1nc(N2CCN(S(=O)(=O)c3ccc(C(F)(F)F)cc3)[C@@H](C(=O)NCc3ccc(C(C)C)cc3)C2)c(C)nc1C(=O)O [Example 422, (R)-3-(4-isopropyl-benzylcarbamoyl)-3′,6′-dimethyl-4-(4-trifluoromethyl-benzenesulfonyl)-3,4,5,6-tetrahydro-2H-[1,2′]bipyrazinyl-5′-carboxylic acid]	> 1000	> 1000
